{"source": "patent US20070281900A1", "about": "“COMPOSITIONS AND METHODS FOR LIPID AND POLYPEPTIDE BASED siRNA [sequence] [sequence]” (NASTECH PHARMACEUTICAL COMPANY INC., priority 2006, published 2007)", "tested_on": "9L/LacZ cells", "experiment": "Cell confluency as measure of effect of transfection condition on cell growth", "conditions": "Qneg siRNA 100 nM, PN183 7 μM or PN73 2 μM where named, nontransfected cells 70%", "description": "For each transfection mixture, 9L/LacZ cells (passage 8) were plated at density of 6.0×10^3 cells/well on a 96-well plate. […] The cationic lipid […]™ served as a positive transfection control. Non-transfected cells served as a negative transfection control and a positive control for cell growth.\nTransfection efficiency was calculated by dividing the number of fluorescently labeled cells by the total number of cells and multiplying by 100. Cell confluency was used to measure the effect of each transfection condition on cell growth.", "note": "Peptide text beside a SMILES is read from it.", "data": [{"compound": "C[C@@H](O)[C@H](NC(=O)[C@H](CCC(=O)O)NC(=O)[C@H](Cc1c[nH]c2ccccc12)NC(=O)[C@H](Cc1c[nH]c2ccccc12)NC(=O)[C@@H](NC(=O)[C@H](CCC(=O)O)NC(=O)[C@@H](N)CCCCN)[C@@H](C)O)C(=O)N[C@@H](Cc1c[nH]c2ccccc12)C(=O)N[C@@H](Cc1c[nH]c2ccccc12)C(=O)N[C@H](C(=O)N[C@@H](CCC(=O)O)C(=O)N[C@@H](Cc1c[nH]c2ccccc12)C(=O)N[C@@H](CO)C(=O)N[C@@H](CCC(N)=O)C(=O)N1CCC[C@H]1C(=O)NCC(=O)N[C@@H](CCCNC(=N)N)C(=O)N[C@@H](CCCCN)C(=O)N[C@@H](CCCCN)C(=O)N[C@@H](CCCNC(=N)N)C(=O)N[C@@H](CCCNC(=N)N)C(=O)N[C@@H](CCC(N)=O)C(=O)N[C@@H](CCCNC(=N)N)C(=O)N[C@@H](CCCNC(=N)N)C(=O)N[C@@H](CCCNC(=N)N)C(=O)N1CCC[C@H]1C(=O)N1CCC[C@H]1C(=O)N[C@@H](CCC(N)=O)C(N)=O)[C@@H](C)O", "note": "[PN183] (H-KETWWETWWTEWSQPGRKKRRQRRRPPQ-NH2)", "values": [{"measurement": "% Cell Confluency 20 nM", "setting": "lipid group 20 nM", "value": 70, "unit": "%"}, {"measurement": "% Cell Confluency 60 nM", "setting": "lipid group 60 nM", "value": 70, "unit": "%"}]}]}
